Results published in ChEMBL document CHEMBL1124313, “Benzodiazepine gastrin and brain cholecystokinin receptor ligands: L-365,260” (J Med Chem, 1989).

Key:
[1] = target: T1, Cholecystokinin receptor type A (Rattus norvegicus, UniProt P30551); test: Displacement of [125 I] CCK-8 from Cholecystokinin type A receptor of rat pancreas
T1 sequence (P30551 whole entry): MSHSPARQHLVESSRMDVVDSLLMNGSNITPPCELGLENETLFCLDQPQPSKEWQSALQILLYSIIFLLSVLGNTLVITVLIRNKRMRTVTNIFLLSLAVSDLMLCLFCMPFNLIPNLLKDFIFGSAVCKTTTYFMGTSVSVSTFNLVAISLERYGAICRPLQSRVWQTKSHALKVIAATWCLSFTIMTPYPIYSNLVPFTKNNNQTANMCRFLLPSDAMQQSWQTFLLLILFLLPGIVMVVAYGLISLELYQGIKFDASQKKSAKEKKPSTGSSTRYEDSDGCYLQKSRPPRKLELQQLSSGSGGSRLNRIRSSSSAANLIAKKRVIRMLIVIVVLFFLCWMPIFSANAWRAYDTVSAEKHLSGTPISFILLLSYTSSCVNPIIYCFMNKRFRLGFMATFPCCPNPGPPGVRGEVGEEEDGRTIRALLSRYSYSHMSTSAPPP

[2] = Displacement of 125 I-gastrin from gastrin receptor of guinea pig gastric glands

With O=C(Nc1ccc(Cl)cc1)NC1N=C(c2ccccc2F)c2ccccc2NC1=O (racemic) the IC50 [1] was 110 nM.

In the case of CN1C(=O)[C@@H](NC(=O)c2ccc(Cl)cc2)N=C(c2ccccc2F)c2ccccc21, the IC50 [1] is reported as 0.39 nM.

With CN1C(=O)[C@H](NC(=O)c2ccc(Cl)cc2)N=C(c2ccccc2F)c2ccccc21 the IC50 [1] was 2.9 nM.

CCOC(=O)CN1C(=O)C(NC(=O)c2ccc(Cl)cc2)N=C(c2ccccc2F)c2ccccc21 (racemic) gave an IC50 [2] of 690 nM.
